Consider eleven compounds from ChEMBL document CHEMBL3580586, “Novel azoles as potent and selective cannabinoid CB2 receptor agonists” (Bioorg Med Chem Lett, 2014).

Data set [1] is filed under the species Homo sapiens. The data set can be described thus: Selectivity ratio of Ki for human CB1 receptor to Ki for human CB2 receptor.
Data set [2] addresses T1, Cannabinoid receptor 2 (Homo sapiens, UniProt P34972). The data set can be described thus: Displacement of [3H]CP55940 from human CB2 receptor expressed in CHO-K1 cell membrane by competitive displacement assay. It is filed as cell membranes.
For data set [3], the target named is T1, Cannabinoid receptor 2. Briefly: Agonist activity at human CB2 receptor expressed in CHO-K1 cells assessed as inhibition of forskolin-stimulated cAMP production. It counts as functional, cell-based. (In general: cAMP levels reflect the balance of adenylyl cyclase and phosphodiesterase activity.)
Data set [4] concerns the target T2, Cannabinoid receptor 1 (Homo sapiens, UniProt P21554). The data set can be described thus: Displacement of [3H]CP55940 from human CB1 receptor expressed in CHO-K1 cell membrane by competitive displacement assay. It is filed as cell membranes. On the technique in general: Displacement assays read how much labelled ligand stays bound in the presence of the test substance.

For data set [5], the species on record is Homo sapiens. Briefly: Selectivity ratio of EC50 for human CB1 receptor to EC50 for human CB2 receptor.
Data set [6] has as its target T2, Cannabinoid receptor 1. The data set can be described thus: Agonist activity at human CB1 receptor expressed in CHO-K1 cells assessed as inhibition of forskolin-stimulated cAMP production. It is filed as functional, cell-based.
A short description of data set [7]: Antioxidant activity assessed as inhibition of lipid peroxidation. It counts as physicochemical.

T2 sequence (P21554 whole entry): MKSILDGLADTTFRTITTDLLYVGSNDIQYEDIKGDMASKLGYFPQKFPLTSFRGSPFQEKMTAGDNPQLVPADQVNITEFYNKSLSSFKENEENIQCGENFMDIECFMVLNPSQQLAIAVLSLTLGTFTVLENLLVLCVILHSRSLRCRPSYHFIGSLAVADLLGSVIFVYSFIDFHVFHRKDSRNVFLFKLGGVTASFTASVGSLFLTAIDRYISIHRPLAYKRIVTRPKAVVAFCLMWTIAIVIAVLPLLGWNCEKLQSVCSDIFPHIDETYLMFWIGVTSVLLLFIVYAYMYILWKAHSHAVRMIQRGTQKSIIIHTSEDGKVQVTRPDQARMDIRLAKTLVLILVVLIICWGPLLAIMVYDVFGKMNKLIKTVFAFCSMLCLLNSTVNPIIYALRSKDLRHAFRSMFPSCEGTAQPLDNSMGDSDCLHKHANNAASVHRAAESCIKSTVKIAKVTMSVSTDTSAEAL
T1 sequence (P34972 whole entry): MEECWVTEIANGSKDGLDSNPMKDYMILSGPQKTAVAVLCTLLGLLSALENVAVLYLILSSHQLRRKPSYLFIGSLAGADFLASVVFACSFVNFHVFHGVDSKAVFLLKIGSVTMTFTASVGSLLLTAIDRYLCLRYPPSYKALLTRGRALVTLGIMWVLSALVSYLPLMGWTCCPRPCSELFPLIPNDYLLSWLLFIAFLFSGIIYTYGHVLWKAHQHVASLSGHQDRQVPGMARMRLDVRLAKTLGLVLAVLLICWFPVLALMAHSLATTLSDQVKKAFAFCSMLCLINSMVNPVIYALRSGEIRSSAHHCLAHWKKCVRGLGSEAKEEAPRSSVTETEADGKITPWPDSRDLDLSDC

Take `CN(C)C1(c2nc(-c3cc(C(C)(C)C)c(O)c(C(C)(C)C)c3)cs2)CCSCC1`: the Selectivity ratio in the data set listed under Homo sapiens [1] turned out to be 29; in the data set listed under Homo sapiens [5] it was 40. Besides, the inhibition constant Ki (in general, the equilibrium dissociation constant of an inhibitor or competing ligand from its target) at Cannabinoid receptor 2 [2] stood at 81.7 nM; at Cannabinoid receptor 1 [4] (read-out: Ki), 2340 nM. The results for the 50% effective concentration (EC50) at Cannabinoid receptor 2 [3] and at Cannabinoid receptor 1 [6] were 59.1 nM and 2380 nM, respectively.

For `CNC1(c2nc(-c3cc(C(C)(C)C)c(O)c(C(C)(C)C)c3)cs2)CCOCC1`, the Selectivity ratio in the data set filed under Homo sapiens [1] was found to be 16. The Ki on Cannabinoid receptor 2 [2] was determined as 144 nM; at Cannabinoid receptor 1 [4] (read-out: Ki), 2270 nM.

As for `CCN(CC)C1(c2nc(-c3cc(C(C)(C)C)c(O)c(C(C)(C)C)c3)cs2)CCOCC1`, the Selectivity ratio was found to be 43 in the data set filed under Homo sapiens [1] and 56 in the data set filed under Homo sapiens [5]. For the same compound, the values for the Ki at Cannabinoid receptor 2 [2] and at Cannabinoid receptor 1 [4] (read-out: Ki) were 77.4 nM and 3300 nM, respectively. Moreover, the EC50 (in general, the concentration giving half of the maximal effect) on Cannabinoid receptor 2 [3] stood at 72 nM; on Cannabinoid receptor 1 [6], 4040 nM.

In the case of `CN(C)C1(c2nc(-c3cc(C(C)(C)C)cc(C(C)(C)C)c3)cs2)CCOCC1`, the Selectivity ratio in the data set listed under Homo sapiens [1] worked out at 37. For the same compound, the Ki at Cannabinoid receptor 2 [2] came to 127 nM; at Cannabinoid receptor 1 [4] (read-out: Ki) it was 4710 nM.

Regarding `CC(C)(C)c1cc(-c2csc(C3(N)CCOCC3)n2)cc(C(C)(C)C)c1O`, the Selectivity ratio in the data set filed under Homo sapiens [1] is 2.6. The Ki at Cannabinoid receptor 2 [2] came to 2700 nM; on Cannabinoid receptor 1 [4] (read-out: Ki) it was 6960 nM.

For `CC(C)(C)c1cc(-c2csc(C3(N4CCOCC4)CCOCC3)n2)cc(C(C)(C)C)c1O`, the Ki at Cannabinoid receptor 2 [2] is 177 nM; at Cannabinoid receptor 1 [4] (cho-k1), “Not Active”.

For `CN(C)Cc1nc(-c2cc(C(C)(C)C)c(O)c(C(C)(C)C)c2)cs1`, the Ki at Cannabinoid receptor 2 [2] is 6240 nM; at Cannabinoid receptor 1 [4] (cho-k1), “Not Active”.

Take `CC(C)(C)c1cc(-c2csc(C3(N4CCCCC4)CCOCC3)n2)cc(C(C)(C)C)c1O`: the Selectivity ratio in the data set listed under Homo sapiens [1] stood at 43; in the data set filed under Homo sapiens [5] it was 56. Moreover, the inhibition constant (Ki) at Cannabinoid receptor 2 [2] came out at 49.7 nM; on Cannabinoid receptor 1 [4] (read-out: Ki) it was 2170 nM. In addition, the concentration for a half-maximal effect (EC50) on Cannabinoid receptor 2 [3] amounted to 40 nM; on Cannabinoid receptor 1 [6], 2260 nM.

As to `CN(C)C1(c2nc(-c3cc(C(C)(C)C)c(O)c(C(C)(C)C)c3)co2)CCOCC1`, the Selectivity ratio in the data set listed under Homo sapiens [1] came to 16; in the data set listed under Homo sapiens [5], 32. Moreover, the Ki turned out to be 51.6 nM on Cannabinoid receptor 2 [2] and 817 nM at Cannabinoid receptor 1 [4] (read-out: Ki). For the same compound, the concentration giving a half-maximal response (EC50) on Cannabinoid receptor 2 [3] was 43.6 nM; at Cannabinoid receptor 1 [6], 1400 nM.

As for `CN(C)C1(c2nc(-c3cc(C(C)(C)C)c(O)c(C(C)(C)C)c3)cs2)CCOCC1`, the Selectivity ratio in the data set listed under Homo sapiens [1] came to 30; in the data set listed under Homo sapiens [5] it was 64. Besides, the inhibition constant (Ki) at Cannabinoid receptor 2 [2] came to 29.4 nM; on Cannabinoid receptor 1 [4] (read-out: Ki), 857 nM. Moreover, the concentration for a half-maximal effect (EC50) at Cannabinoid receptor 2 [3] is 42 nM; on Cannabinoid receptor 1 [6], 2670 nM. In addition, in data set [7], the IC50 (commonly the concentration that gives 50% inhibition) was found to be 500 nM.

For `CN1CCCCC1Cn1cc(C(=O)c2cc([N+](=O)[O-])ccc2I)c2ccccc21` (stereo not given), the Selectivity ratio in the data set filed under Homo sapiens [1] was 95; in the data set filed under Homo sapiens [5], 63. The results for the inhibition constant (Ki) on Cannabinoid receptor 2 [2] and at Cannabinoid receptor 1 [4] (read-out: Ki) were 21.8 nM and 2080 nM, respectively. For the same compound, the concentration for a half-maximal effect (EC50) came to 16.4 nM at Cannabinoid receptor 2 [3] and 1040 nM at Cannabinoid receptor 1 [6].
